What was measured:
Type in all cases: biochemical
Conditions in all cases: Table 8
[1] = system: Rabbit Skeletal myofibrils (rabbit psoas muscle); test: Myofibril ATPase assay (PK/LDH NADH-coupled), skeletal myofibrils
Description: (§1) Myofibril ATPase assays are known in the art to be useful in evaluating small molecules for the treatment of HCM and other cardiac indications. Myosin ATPase activity is assessed by using a coupled reaction system, in which ADP generated by the myosin ATPase function is coupled to the disappearance of NADH through the pyruvate kinase/lactate dehydrogenase (PK-LDH) system. ATPase activity produces ADP, which is used as a substrate for PK to produce pyruvate and regenerate ATP. The pyruvate is then used as a substrate by LDH to oxidize NADH to NAD+. The rate of the reaction is monitored through the time-dependent disappearance of NADH using absorbance at 340 nm, which, when the couple system is in stoichiometric excess, is directly correlated to the ATPase activity of the myosin. Inhibition of ATPase activity by the assayed compounds is indicated by a reduced rate of NADH loss, relative to vehicle-treated controls, over the experimental time window. Rabbit Skeletal and Porcine Ventricle are the primary sources of myofibril material.
(§2) Materials: The following stock solutions and reagents were used in the Myofibril ATPase Assay:
(§3) Stock Solutions of pCa buffer. Combine PIPES, CaCl2), and EGTA solutions with water. Adjust pH to 7.0 and bring final volume to 100 mL.
(§4) Buffer A & Buffer B. Prepare buffers A and B according to the table below.
(§5) Myofibril ATPase Assay Procedure: BSA, ATP, NADH, PEP, and DTT solutions were thawed at room temperature, then transferred to ice. Pellet-frozen myofibrils were transferred with approximately twice the required volume into a sufficiently large tube and capped. Myofibrils were thawed by rolling in a water bath for approximately 15 min at room temperature and cooled on ice. Buffers A and B were prepared by adjusting volumes as necessary for required number of wells and stored on ice. 0.5 μL of the compounds to be assayed were added into wells. 25 μL of Buffer A was dispensed into the wells, followed by 25 μL of Buffer B. The wells were measured for absorbance at 340 nm, using a kinetic protocol in which the wells are read every 1.5-2 min for 75 min. Assay data analysis was performed using a python script that filtered the raw data to retain those points falling between a starting and ending time and between a maximum and minimum absorbance, then used the filtered time-domain 340 nm absorbance data in each well to calculate a slope via linear regression analysis in units of mAU/min. Compound slopes were normalized between 100% and 0% activity, where 100% represented the slope of wells containing only compound vehicle, and fit to a 4-parameter logistic model. In addition to the fit parameters, the EC25% is calculated, relative to the 100% normalized value. In the case of inhibitors, EC50% is also calculated, if available. Fit parameters, calculated effective concentrations, filtered raw data, and calculated slopes were exported, in addition to compound-specific graphs of normalized ATPase activity versus concentration in μM.
Skeletal Myofibril Isolation:
Myofibrils from various animals and tissue types were acquired from a variety of sources: rabbit psoas muscle was purchased from Pel-Freez Biologicals (Rogers, AR) and porcine cardiac muscle was purchased from Exemplar Genetics. All myofibrils were prepared using a method based upon those described in Herrmann et al. (1993) and summarized here. Minced tissue was homogenized for 50 sec with a Polytron homogenizer into 10 volumes (relative to weight in grams) of Isolation Buffer A (50 mM Tris, pH 8.0, 0.1 M potassium acetate, 5 mM KCl, 2 mM DTT, 5 mM EDTA, 0.5% v/v Triton X-100) supplemented with 0.1 mM PMSF, 10 μM leupeptin, 5 μM pepstatin, and 0.5 mM sodium azide. The myofibrils were recovered by centrifugation (Beckman Allegra 6R, 1200 g, 10 min) and resuspended in 10 volumes Isolation Buffer B (Buffer A above without protease inhibitors or sodium azide). The myofibrils were further homogenized as before and recovered by centrifugation. […]

[2] = biological target: T1, Porcine Ventricle myofibrils (left ventricle of Yucatan minipigs) (Sus scrofa, UniProt P79293); test: Myofibril ATPase assay (PK/LDH NADH-coupled), ventricle myofibrils
T1 construct: Myofibrils from porcine cardiac muscle was isolated from the left ventricle of Yucatan minipigs; tissue Exemplar Genetics; host or cells: left ventricle of Yucatan minipigs
Description: as §1, §2, §3, §4, §5
Cardiac Myofibril Isolation:
Myofibrils from porcine cardiac muscle was isolated from the left ventricle of Yucatan minipigs. Myofibrils were prepared using a method based upon those described in Herrmann et al. (1993) and summarized here. Minced tissue was homogenized for 50 sec with a Polytron homogenizer into 10 volumes (relative to weight in grams) of Isolation Buffer A (75 mM KCl, 10 mM Imidazole, 2 mM MgCl2, 2 mM EGTA, 1 mM NaN3, 1% v/v Triton X-100) supplemented with 4 mM Phosphocreatine, 1 mM ATP, 50 mM BDM, 1 mM DTT, 1 mM Benzamide HCl, 0.1 mM PMSF, 10 μM leupeptin, 5 μM pepstatin, and 10 mM EDTA. The myofibrils were recovered by centrifugation (Beckman Allegra 6R, 1200 g, 15 min) and resuspended in 10 volumes Isolation Buffer B (Buffer A above without supplemental reagents). The myofibrils were further homogenized described above and recovered by centrifugation for 7 mins. Cellular membranes and debris were removed by 3 washes in Isolation Buffer B, centrifuging each as before. […]

[3] = system: Porcine Atria myofibrils; test: Myofibril ATPase assay (PK/LDH NADH-coupled), atria myofibrils
Description: as §5

T1 sequence (P79293 whole entry): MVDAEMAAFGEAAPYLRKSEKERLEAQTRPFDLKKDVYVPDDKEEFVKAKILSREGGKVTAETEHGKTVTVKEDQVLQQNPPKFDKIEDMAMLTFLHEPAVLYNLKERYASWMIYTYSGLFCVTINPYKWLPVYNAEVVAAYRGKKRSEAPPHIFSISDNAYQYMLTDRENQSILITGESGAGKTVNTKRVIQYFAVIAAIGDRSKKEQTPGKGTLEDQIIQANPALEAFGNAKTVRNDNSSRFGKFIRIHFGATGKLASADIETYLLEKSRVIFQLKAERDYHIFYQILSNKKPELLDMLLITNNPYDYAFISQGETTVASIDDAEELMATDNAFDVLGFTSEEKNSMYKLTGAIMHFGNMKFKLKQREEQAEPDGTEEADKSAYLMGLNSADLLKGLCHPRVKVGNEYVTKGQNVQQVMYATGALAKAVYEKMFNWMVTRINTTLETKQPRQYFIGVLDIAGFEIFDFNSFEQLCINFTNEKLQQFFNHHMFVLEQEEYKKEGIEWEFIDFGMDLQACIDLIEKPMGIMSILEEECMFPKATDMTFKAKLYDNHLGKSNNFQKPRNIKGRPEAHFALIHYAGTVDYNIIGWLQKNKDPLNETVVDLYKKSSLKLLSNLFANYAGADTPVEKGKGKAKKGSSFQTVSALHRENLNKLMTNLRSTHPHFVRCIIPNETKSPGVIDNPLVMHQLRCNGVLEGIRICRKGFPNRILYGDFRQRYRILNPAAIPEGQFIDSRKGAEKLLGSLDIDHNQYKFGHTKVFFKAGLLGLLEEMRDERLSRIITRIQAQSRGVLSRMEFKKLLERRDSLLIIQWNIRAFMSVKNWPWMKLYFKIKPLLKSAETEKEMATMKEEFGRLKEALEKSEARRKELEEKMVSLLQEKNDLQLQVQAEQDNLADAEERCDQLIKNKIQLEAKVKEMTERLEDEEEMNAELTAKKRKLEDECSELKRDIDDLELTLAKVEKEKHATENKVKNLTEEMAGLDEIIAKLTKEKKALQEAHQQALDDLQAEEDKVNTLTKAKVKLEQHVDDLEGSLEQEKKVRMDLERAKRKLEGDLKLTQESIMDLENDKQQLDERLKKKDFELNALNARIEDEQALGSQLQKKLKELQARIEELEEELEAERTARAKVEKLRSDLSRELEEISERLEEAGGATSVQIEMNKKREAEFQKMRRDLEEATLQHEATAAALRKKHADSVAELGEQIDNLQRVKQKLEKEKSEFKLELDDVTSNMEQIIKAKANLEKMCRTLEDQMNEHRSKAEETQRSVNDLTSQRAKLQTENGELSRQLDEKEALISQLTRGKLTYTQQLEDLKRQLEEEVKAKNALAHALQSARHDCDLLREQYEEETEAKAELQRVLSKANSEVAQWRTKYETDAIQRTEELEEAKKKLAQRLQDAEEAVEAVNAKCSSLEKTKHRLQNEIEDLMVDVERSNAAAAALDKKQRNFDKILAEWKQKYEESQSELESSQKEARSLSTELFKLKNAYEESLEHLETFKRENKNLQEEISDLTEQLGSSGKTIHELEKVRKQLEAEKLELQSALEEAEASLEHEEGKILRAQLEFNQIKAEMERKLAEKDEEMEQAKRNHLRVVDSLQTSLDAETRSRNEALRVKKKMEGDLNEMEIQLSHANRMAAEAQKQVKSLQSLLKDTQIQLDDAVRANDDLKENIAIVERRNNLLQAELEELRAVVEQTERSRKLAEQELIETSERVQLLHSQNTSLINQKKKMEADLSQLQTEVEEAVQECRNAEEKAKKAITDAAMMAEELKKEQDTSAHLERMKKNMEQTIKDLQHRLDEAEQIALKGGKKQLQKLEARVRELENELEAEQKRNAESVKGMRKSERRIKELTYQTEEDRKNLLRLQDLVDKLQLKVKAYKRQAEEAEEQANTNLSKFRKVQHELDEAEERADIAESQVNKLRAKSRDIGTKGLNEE

SMILES	Rabbit Psoas IC25 [1]	Porcine Ventricle IC25 [2]	Porcine Atria IC25 [3]
C[C@H](NC(=O)CN1Cc2cc(F)c(F)cc2NC1=O)c1ccc(C#N)cc1F [Compound B45, N-[(1S)-1-(4-cyano-2-fluorophenyl)ethyl]-2-(6,7-difluoro-2-oxo-1,4-dihydroquinazolin-3-yl)acetamide]	0.0115 µM	0.0457 µM	0.02 µM
Cc1cnncc1[C@@H](C)NC(=O)CN1Cc2c(ccc(F)c2F)NC1=O [Compound B46]	0.6601 µM	1.847 µM	0.58 µM
C[C@@H](NC(=O)CN1Cc2c(ccc(F)c2F)NC1=O)c1cc(C#N)c(F)cn1 [Compound B52]	3.964 µM	1.456 µM	0.42 µM
Cc1nc(C#N)cnc1[C@@H](C)NC(=O)CN1Cc2c(ccc(F)c2F)NC1=O [Compound B54]	0.5796 µM	0.9628 µM	0.11 µM
Cc1cc(F)cc2c1CN(CC(=O)N[C@H](C)c1ccc(C#N)cc1F)C(=O)N2 [Compound B56]	1.887 µM	1.991 µM	1.64 µM
Cc1cc(F)cc2c1CN(CC(=O)N[C@@H](C)c1ccc(C#N)cc1F)C(=O)N2 [Compound B57]	0.0139 µM	0.0899 µM	0.04 µM
Cc1cc(F)cc2c1NC(=O)N(CC(=O)N[C@H](C)c1ccc(C#N)cc1F)C2 [Compound B58]	6.712 µM	4.23 µM	1.02 µM
Cc1cc(F)cc2c1NC(=O)N(CC(=O)N[C@@H](C)c1ccc(C#N)cc1F)C2 [Compound B59, N-[(1S)-1-(4-cyano-2-fluorophenyl)ethyl]-2-(6-fluoro-8-methyl-2-oxo-1,4-dihydroquinazolin-3-yl)acetamide]	0.0818 µM	0.9519 µM	0.63 µM
O=C(CN1Cc2c(ccc(F)c2F)NC1=O)N[C@@H]1COCc2cc(F)cc(F)c21 [Compound B62]	0.0143 µM	0.0415 µM	0.04 µM
O=C(CN1Cc2c(ccc(F)c2F)NC1=O)N[C@H]1COCc2cc(F)cc(F)c21 [Compound B63]	100 µM	100 µM	1.81 µM
N#Cc1cnc2c(c1)OC[C@H]2NC(=O)CN1Cc2c(ccc(F)c2F)NC1=O [Compound B64]	0.7773 µM	0.5798 µM	0.52 µM
Cc1cc(C(C)NC(=O)CN2Cc3c(ccc(F)c3F)NC2=O)ncc1Cl (stereo not drawn) [Compound B70]	1.912 µM	1.114 µM	0.35 µM
Cc1noc([C@@H](C)NC(=O)CN2Cc3c(ccc(F)c3F)NC2=O)n1 [Compound B71]	100 µM	40.66 µM	43.18 µM
Cc1noc([C@H](C)NC(=O)CN2Cc3c(ccc(F)c3F)NC2=O)n1 [Compound B72]	1.903 µM	100 µM	2.25 µM
C[C@@H](NC(=O)CN1Cc2c(ccc(F)c2F)NC1=O)c1cc2c(cn1)OCCN2C [Compound B73]	23.3 µM	2.134 µM	1.22 µM
O=C(CN1Cc2c(ccc(F)c2F)NC1=O)N[C@@H]1COCc2cc(F)ccc21 [Compound B75]	0.09136 µM	0.0144 µM	0.02 µM
CC(NC(=O)CN1Cc2cc(F)ccc2NC1=O)c1ccc(C#N)cc1F (stereo not drawn) [Compound B78]	0.0417 µM	0.1091 µM	0.04 µM
COc1cc(C#N)ncc1[C@@H](C)NC(=O)CN1Cc2c(ccc(F)c2F)NC1=O [Compound B79]	0.2662 µM	0.4454 µM	0.04 µM
COc1cc(C#N)ncc1[C@H](C)NC(=O)CN1Cc2c(ccc(F)c2F)NC1=O [Compound B80]	8.828 µM	2.778 µM	0.06 µM

Continued, values first:

Rabbit Psoas IC25 [1]	Porcine Ventricle IC25 [2]	Porcine Atria IC25 [3]	SMILES
12.65 µM	62.1 µM	100.00 µM	C[C@H](NC(=O)[C@H](CC1CC1)N1Cc2c(ccc(F)c2F)NC1=O)c1ccc(F)cc1F [Compound B48]
100 µM	45.96 µM	6.51 µM	C[C@@H](NC(=O)[C@@H](CC1CC1)N1Cc2c(ccc(F)c2F)NC1=O)c1ccc(F)cc1F [Compound B49]
100 µM	42.56 µM	100.00 µM	CC(C)C[C@@H](C(=O)N[C@@H](C)c1ncc(F)cc1F)N1Cc2c(ccc(F)c2F)NC1=O [Compound B50]
100 µM	100 µM	49.07 µM	CC(C)C[C@H](C(=O)N[C@H](C)c1ncc(F)cc1F)N1Cc2c(ccc(F)c2F)NC1=O [Compound B51]
2.769 µM	100 µM	0.80 µM	CC(C)C[C@@H](C(=O)N[C@@H](C)c1ccc(F)cc1F)N1Cc2c(ccc(F)c2F)NC1=O [Compound B60]
100 µM	100 µM	100.00 µM	CC(C)C[C@H](C(=O)N[C@H](C)c1ccc(F)cc1F)N1Cc2c(ccc(F)c2F)NC1=O [Compound B61]
100 µM	100 µM	100.00 µM	CC(C)C[C@@H](C(=O)N[C@H](C)c1ccc(F)cc1F)N1Cc2cc(F)ccc2NC1=O [Compound B66]
58.62 µM	1.168 µM	2.03 µM	Cc1cc([C@@H](C)NC(=O)CN2Cc3c(ccc(F)c3F)NC2=O)ncc1F [Compound B68]
0.0488 µM	0.0768 µM	0.04 µM	CC(NC(=O)CN1Cc2c(ccc(F)c2F)NC1=O)c1ncc(C#N)cc1F (stereo not drawn) [Compound B77]
5.776 µM	0.4092 µM	0.09 µM	C[C@@H](NC(=O)CN1Cc2c(ccc(F)c2F)NC1=O)c1ncc(Cl)cc1F [Compound B81]
0.0183 µM	0.0561 µM	0.03 µM	C[C@H](NC(=O)CN1Cc2c(ccc(F)c2F)NC1=O)c1ncc(Cl)cc1F [Compound B82]

— patent publication US12509431B2, “1,4-dihydroquinazolinone compounds and uses thereof” (Edgewise Therapeutics, Inc., priority 2022, dated 2025)
